The subject of assay [1] is pro-inflammatory cytokine IFN-γ secretion by mouse T cells stimulated by CD3/CD28 monoclonal antibodies. In words: Inhibition of IFN-γ secretion by mouse T cells stimulated by CD3/CD28 monoclonal antibodies (ELISA). Format: cell-based. As to conditions: T-cell, 48 h, C57BL/6 mouse T cells, CD3/CD28 mAb stimulation; for inhibition at 20 µM: read-out: Inhibitory rate (%, 20 μM). On the procedure: CD3, CD28 monoclonal antibodies, and kit for IFN-γ detection were purchased from BD Bioscience, Cell Counting Kit-8 (CCK-8) was purchased from MeilunBio®, and RPMI-1640 medium and fetal bovine serum were purchased from Biological Industries.
Preparation of samples to be tested: the 12 compounds of Example 1 were dissolved in DMSO, respectively to prepare 20 mM stock solutions.
Splenocytes were aseptically isolated from 6-8 week old female C57BL/6 mice, and T cells were isolated using a nylon wool column method. The T cells were then inoculated (4×10^5 cells/well) in a 96-well plate (which was coated with 5 μg/mL of CD3 monoclonal antibody). At the same time, a prepared compound solution of 40 μM, 20 μM, 10 μM, 5 μM, 2.5 μM, or 1.25 μM along with a 2 μg/mL solution of CD28 monoclonal antibody were added into each group, respectively, which were cultured in a 37° C./5% CO2 incubator. After 48 h, the supernatant of the cells was collected and the IFN-γ secretion in the supernatant was detected by an Enzyme-Linked Immuno-Sorbent Assay (ELISA); 10 μL of CCK-8 solution was added into each well, and OD450 was measured after incubation at 37° C. for 4 h to evaluate cell proliferation. […] The inhibitory activity of the compounds on IFN-γ was calculated, and the half-maximal inhibitory concentration (IC50) was analyzed using GraphPadPrism software.
On the technique in general: In an ELISA, binding on a coated surface is turned into a signal by an enzyme label.

Assay [2] concerns imiquimod-induced psoriasis mice. In words: In vivo anti-psoriasis activity test on sesterterpenoid compound 6 (imiquimod-induced psoriasis mouse model). The settings on record: 25 and 50 mg/kg intraperitoneal injection, day 1 to 6. The method, then:
Establishment and pharmacodynamic study of a mouse model of imiquimod-induced psoriasis: the mice were randomly divided into a control group, a model group, a methotrexate (MTX) treatment (1 mg/kg) group, and Leucosceptrum canum sesterterpenoid treatment (50 mg/kg, 150 mg/kg, 450 mg/kg) groups, with 6 mice in each group. The mice were depilated on their backs before the experiment, and 62.5 mg of […] imiquimod cream was evenly applied on the backs of mice while an equivalent amount of Vaseline was applied on the backs of mice in the normal control group from the 1st day, the application was performed once a day for 6 d. From the 1st day 1 to the 6th day, each treatment group was given the drug by gavage. During the experiment, the mice were weighed and scored for the Psoriasis Area and Severity Index (PASI) according to the following criteria: 0 points, normal skin without erythema and scales; 1 point, mild erythema, a few fine scales, and the skin at the lesion being slightly higher than normal skin; 2 points, moderate red plaques, the surface of the lesions being covered with scales, and the lesions being flaky or moderately raised; 3 points, severe dark red plaques, almost all the lesions being covered with thick scales or obvious lesions; 4 points, extremely severe and dark red plaques, all lesions being covered with highly thick layered scales, and the thickening and protrusion of the lesions being extremely obvious. After the experiment, the back skin of the mice was taken to make pathological sections. The levels of pro-inflammatory cytokines IFN-γ and IL-17A in mouse serum were detected by ELISA.
A method for establishing the imiquimod-induced psoriasis mouse model was the same as that in Example 4. The mice were randomly divided into a control group, a model group, a methotrexate (MTX) treatment group (1 mg/kg), and compound 6 treatment groups (25 and 50 mg/kg), with 6 mice in each group. From the 1st day to the 6th day, drugs were given to each treatment group by intraperitoneal injection. During the experiment, the mice were weighed and scored for PASI. After the experiment, the back skin of the mice was taken to make pathological sections. The levels of pro-inflammatory cytokines IFN-γ and IL-17A in mouse serum were detected by ELISA.

Here are results for twelve compounds from patent US20260078110A1, “SESTERTERPENOID COMPOUNDS AND EXTRACT L01 OF LEUCOSCEPTRUM CANUM, AND USE THEREOF IN TREATMENT OF PSORIASIS” (Kunming Institute of Botany, CAS, priority 2023, published 2026).

For `CC1=C[C@@]2(O)[C@@](O)(OC1)[C@@H](C)[C@@H]1CC[C@H](C)[C@H]1[C@]2(O)C(=O)[C@H](C)CC(=O)c1occc1C` [Compound 7], the inhibition at 20 µM in assay [1] was 36.2 ± 8.27%.
The same measure, in the same setting: in the case of `CC(C)=C[C@]1(O)C(=O)[C@@H](C)[C@@H]2CC[C@H](C)[C@H]2[C@@]1(O)C(=O)[C@H](C)CC[C@@H]1OC(=O)C=C1C` [Compound 2] it was 51.3 ± 7.1%; in that of `CC(C)=C[C@]1(O)C(=O)[C@@H](C)[C@@H]2CC[C@H](C)[C@H]2[C@@]1(O)C(=O)[C@H](C)CCc1occc1C` [Compound 3], 30.5 ± 6.55%.
As to `CC1=C[C@@]2(O)[C@@](O)(OC1)[C@@H](C)[C@@H]1CC[C@H](C)[C@H]1[C@]2(O)C(=O)[C@H](C)CCc1occc1C` [Compound 6], in assay [1], the inhibition at 20 µM was determined as 66.8 ± 3.02% and half-maximal inhibition (IC50) was put at 5.74 µM. For the same compound, in assay [2], the “level of IFN-γ in the serum of psoriasis mice (FIG. 10A-10B, ELISA)” value is on record as “significantly reduces”; the “level of IL-17A in the serum of psoriasis mice (FIG. 10A-10B, ELISA)” value is listed as “significantly reduces”; the “pathological damage of the skin tissue of psoriasis mice (FIG. 9, HE staining)” value is given as “significantly inhibits”; the “symptoms of psoriasis in mice (FIG. 8)” value is given as “significantly improves”.
In the case of `CC(C)=C[C@]1(O)C(=O)[C@@H](C)[C@@H]2CC[C@H](C)[C@H]2[C@]1(O)C(=O)[C@H](C)CC[C@@H]1OC(=O)C=C1C` [Compound 1], the inhibition at 20 µM in assay [1] came out at 32.1 ± 5.46%.
The same measure, in the same setting: the value for `COC1(CC[C@@H](C)C(=O)[C@@]2(O)[C@H]3[C@@H](CC[C@@H]3C)[C@H](C)[C@]3(O)OCC(C)=C[C@@]32O)OC(=O)C=C1C` (some centres unmarked) [Compound 9] was 39.6 ± 7.93%; that for `CC1=C[C@@]2(O)[C@@](O)(OC1)[C@@H](C)[C@@H]1CC[C@H](C)[C@H]1[C@]2(O)C(=O)[C@H](C)CCO` [Compound 5] was 10.7 ± 2.74%; that for `CC[C@@H](C)C(=O)[C@@]1(O)[C@H]2[C@@H](CC[C@@H]2C)[C@H](C)[C@]2(O)OCC(C)=C[C@@]21O` [Compound 4] was 26.7 ± 5.85%.
Take `CC1=C[C@@]2(O)[C@@](O)(OC1)[C@@H](C)[C@@H]1CC[C@H](C)[C@H]1[C@@]2(O)C(=O)[C@H](C)C[C@H]1C(=O)C(C)=C[C@@H]1O` [Compound 11]: in assay [1], the inhibition at 20 µM turned out to be 23.4 ± 1.24%.
The same measure, in the same setting: the value for `COC1C=C(C)C(CC[C@@H](C)C(=O)[C@@]2(O)[C@H]3[C@@H](CC[C@@H]3C)[C@H](C)[C@]3(O)OCC(C)=C[C@@]32O)(OC)O1` (some centres unmarked) [Compound 10] was 10.4 ± 3.02%; that for `CC1=C[C@@]2(O)[C@@](O)(OC1)[C@@H](C)[C@@H]1CC[C@H](C)[C@H]1[C@@]2(O)C(=O)[C@@H](C)C[C@H]1C(=O)C(C)=C[C@@H]1O` [Compound 12] was 33.8 ± 2.27%; that for `CC1=C[C@@]2(O)[C@@](O)(OC1)[C@@H](C)[C@@H]1CC[C@H](C)[C@H]1[C@]2(O)C(=O)[C@H](C)CCC1=C(C)CC(=O)O1` [Compound 8] was 43.1 ± 7.35%.

As usually defined, the IC50 is the concentration that gives 50% inhibition.
